The structures appear in SMILES notation.

Experimental findings from US20220193060A1, “Inhibition of IL-1 Induced Inflammation” (THIOLAB, LLC., priority 2019, published 2022) are described below.

The test has as its system wasp sting. The test is described as follows: Case: topical CPDS cream for wasp sting. Format: in vivo, human. Conditions: topical cream containing 2% CPDS by weight. The method, then:
An individual was stung by a wasp on their hand. […] Application of CPDS cream was repeated after two hours and every 4 hours thereafter. The swelling and redness vanished after 24 hours.

For `O=C(O)c1ccc(SSc2ccc(C(=O)O)cn2)nc1` [CPDS, 6,6′-dithiodinicotinic acid], the “time until swelling and redness vanished” value was determined as 24 h. Further, the burning and itching result (person) is “immediate relief”.
